In publication PMC8694152, “Mutasynthetic Production and Antimicrobial Characterization of Darobactin Analogs” (Microbiology Spectrum, 2021):
≈ marks a conversion by molar mass, not a printed value. Where “and” joins values, the source holds several entries; their conditions need not be identical. Identical values can stand only once.

Key:
[1] = tested on: panel of clinically relevant Gram-negative pathogens; experiment: MIC comparison with DAR A over the panel of test strains; format: cell-based; settings: whole panel of test strains (Table 2)
Method: Therefore, additional clinical isolates of A. baumannii were tested.
(§1) For details, see the supplemental material.
(§2) 146 Mueller Hinton 2 broth (CAMHII). Darobactins were screened in 12 concentrations
(§3) The same concentrations were tested for
(§4) 148 rifampicin, tetracycline and gentamycin as positive controls. For tetracycline resistant
(§5) 151 Bacteria suspension without supplemented standard antibiotics or Darobactin
(§6) 152 was used as negative control.
154 spectrophotometer at 600 nm. The MIC was defined as the minimum concentration
157 dilution as well, but without shaking. In aerobic conditions, overnight cultures of K.
Exponential cultures (OD 600 of
163 of test compound solutions diluted serially two-fold. After overnight incubation at 37 °C,
The MIC against Salmonella
167 conditions. Overnight cultures grown in brain–heart infusion (BHI) broth,
(§7) 171 control. After 24 h incubation, the MIC was determined. All MIC assays were
(§8) 172 performed at least in triplicate.

E. coli NRZ14408 = format: cell-based, Escherichia coli; settings: CAMHII, 18 h, at least 85 % growth inhibition
Method: as §1, §2, §3, §4, §5, §6
(§9) 154 spectrophotometer at 600 nm. […]
as §7, §8

E. coli K0416 = format: cell-based, Escherichia coli; settings: CAMHII, 18 h, at least 85 % growth inhibition
Method: as §1, §2, §3, §4, §5, §6, §9, §7, §8

E. coli Survcare052 = format: cell-based, Escherichia coli; settings: CAMHII, 18 h, at least 85 % growth inhibition
Method: as §1, §2, §3, §4, §5, §6, §9, §7, §8

E. coli MMGI1 = format: cell-based, Escherichia coli; settings: CAMHII, 18 h, at least 85 % growth inhibition
Method: as §1, §2, §3, §4, §5, §6, §9, §7, §8

[2] = tested on: Klebsiella pneumoniae DSM30104; format: cell-based; settings: CAMHII, 18 h, at least 85 % growth inhibition
Method: as §1, §2, §3, §4, §5, §6, §9, §8

[3] = tested on: Escherichia coli ATCC 35218; format: cell-based; settings: CAMHII, 18 h, at least 85 % growth inhibition
Method: as §1, §2, §3, §4, §5, §6, §9, §7, §8

[4] = tested on: Salmonella enterica ATCC 13076; format: cell-based; settings: CAMHII, 18 h, at least 85 % growth inhibition
Method: as §1, §2, §3, §4, §5, §6, §9, §7, §8

[5] = tested on: Acinetobacter baumannii ATCC 19606; format: cell-based; settings: CAMHII, 18 h, at least 85 % growth inhibition
Method: as §1, §2, §3, §4, §5, §6, §9, §7, §8

various E. coli strains = experiment: MIC comparison with DAR A against E. coli strains; format: cell-based, Escherichia coli
Text: New antibiotics, such as darobactin, with potency against these pathogens are desperately needed. […] This can be explained by the fact that this is the only derivative investigated not ending with the amino acid phenylalanine, which represents the most frequent amino acid of known and putative β signals from bacterial OM proteins ([7]). Therefore, DAR F would not block the β signal binding site and, thus, would not inhibit the function of BamA. […] Since Ser2 should eliminate the side chain interactions existing between Asn2 and Lys808 and Asn427 of the BamA β1 strand, it is likely that this greatly reduces DAR E’s affinity for the target and, thus, reduces its potency. In contrast to DAR A, DAR D carries an arginine in position 5 instead of lysine. If DAR A is bound to BamA, the Lys5 side chain points away from BamA, thereby enabling interaction with the negatively charged phosphate groups of phosphatidylglycerol and cardiolipin lipids ([7]). Supposedly, arginine could act similarly in the place of lysine, as arginine attracts more phosphate than lysine in membranes and can form more hydrogen bonds with phosphate clusters than lysine ([16]). Arginine is also capable of cardiolipin binding, a further important aspect of DAR and BamA binding ([17]).
as §1
146 Mueller Hinton 2 broth (CAMHII). Darobactins were screened in 12 concentrations […]

| Structure (SMILES) | fold-higher MIC values than DAR A [1] | MIC (E. coli NRZ14408) [mg/L] | MIC (E. coli K0416) [mg/L] | MIC (E. coli Survcare052) [mg/L] | MIC (E. coli MMGI1) [mg/L] | MIC [2] [mg/L] | MIC [3] [mg/L] | MIC [4] [mg/L] | MIC [5] [mg/L] | fold decrease in potency compared to DAR A (various E. coli strains) |
| --- | --- | --- | --- | --- | --- | --- | --- | --- | --- | --- |
| N=C(N)NCCC1c2ccc3c(c[nH]c3c2)C2Oc3cccc4c(c[nH]c34)C[C@H](N)C(=O)N[C@@H](CC(N)=O)C(=O)N[C@@H]2C(=O)N[C@@H](CO)C(=O)N[C@@H]1C(=O)N[C@@H](CO)C(=O)N[C@@H](Cc1ccccc1)C(=O)O (stereo partly shown) [DAR D, darobactin D] | 8- to 16 fold and 16 fold | 64 (≈ 64.4 µM) | 32 (≈ 32.2 µM) | >64 | 64 (≈ 64.4 µM) | 64 (≈ 64.4 µM) | 64 (≈ 64.4 µM) | 64 (≈ 64.4 µM) | >64 |  |
| NCCCC1c2ccc3c(c[nH]c3c2)C2Oc3cccc4c(c[nH]c34)C[C@H](N)C(=O)N[C@@H](CO)C(=O)N[C@@H]2C(=O)N[C@@H](CO)C(=O)N[C@@H]1C(=O)N[C@@H](CO)C(=O)N[C@@H](Cc1ccccc1)C(=O)O (stereo partly shown) [DAR E, darobactin E] | 8- to 16 fold | 32 (≈ 34.1 µM) | 32 (≈ 34.1 µM) | 64 (≈ 68.2 µM) | 32 (≈ 34.1 µM) | 32 (≈ 34.1 µM) | 32 (≈ 34.1 µM) | 32 (≈ 34.1 µM) | >64 | 8- to 16 fold |
